Measurements as given in article PMC7503370, “Cellular Signaling and Anti-Apoptotic Effects of Prolactin-Releasing Peptide and Its Analog on SH-SY5Y Cells” (International Journal of Molecular Sciences, 2020).
Numbered stars: 1 amine (or outer) side, 2 acyl side, 3 side chain; on linkers, the order of the positions; unused ones are H or OH. Side chains are listed from the residue outwards. Peptide text beside a SMILES is read from it. * marks the point of attachment. γGlu = O=C(O)[C@H](CCC(=O)[*:2])N[*:1]; Palmitoyl = CCCCCCCCCCCCCCCC(=O)*

What was measured:
Assay type in all cases: cell-based, human
[1] = test system: PI3K/Akt signaling pathway in SH-SY5Y cells; assay: Western blotting of PI3K/Akt signaling pathway after 8 min incubation; settings: 1 × 10^-5 M, 37 °C, vs control cells (medium alone), normalized to GAPDH, n = 3, triplicates
Experimental: Figure 1 Prolactin-releasing peptide 31 (PrRP31) and palm^11-PrRP31 increased phosphoinositide-3 kinase (PI3K/Akt) signaling pathway in SH-SY5Y cells. Immunoblots: (a) and their quantifications: (b). SH-SY5Y cells were incubated either with PrRP31 and its palmitoylated analog and scrambled at a final concentration 1 × 10^-5 M, or with insulin at the final concentration 1 × 10^−7 M at 37 °C for 8 min, or medium alone (control). Activation was expressed as the ratio of the activated protein to the total amount of the protein, both normalized to loading control, glyceraldehyde 3-phosphate dehydrogenase (GAPDH). Data are presented as the means ± SEM as a percentage of control cells analyzed by one-way ANOVA followed by the Dunnett post hoc test, * p < 0.5, ** p < 0.01, **** p < 0.0001 (n = 3, each sample in triplicates).
(§1) For the investigation of the molecular mechanism of PrRP31 and its analog in the cells, signaling pathways were studied by Western blotting (WB). The cells were cultured in 6-well plates at a density of 800,000 cells per well. Growth medium was exchanged for serum-free DMEM 16 h before an experiment, and then, the cells were incubated with PrRP31, palm^11-PrRP31, or scrambled peptide at a final concentration of 1 × 10^−5 M or insulin at a concentration of 1 × 10^−7 M at 37 °C for 8 min. The cells were rapidly cooled on ice and lysed in 400 µl of Laemmli sample buffer (62.5 mM Tris-HCl with pH 6.8, 2% SDS, 10% glycerol, 0.01% bromophenol blue, 5% mercaptoethanol, 50 mM NaF, and 1 mM Na3VO4) and stored at −20 °C. Afterward, the cell lysates were analyzed by WB. SDS-electrophoresis and WB were carried out using a Criterion system with a 26-well 4−15% Criterion^TM TGX^TM Precast Midi Protein Gel (Bio-Rad, Hercules, CA, USA) at a constant voltage of 200 V or 100 V, respectively.
(§2) Subsequently, the membranes were incubated overnight with primary antibody (Ab) at 4 °C, according to the manufacturer´s instructions (Table 2). The next day, the membranes were incubated with an HRP-linked secondary antibody for 1 h at room temperature. Chemiluminescence was visualized with a ChemiDoc^TM System (Bio-Rad). Band intensities were normalized using glyceraldehyde 3-phosphate dehydrogenase (GAPDH) as an internal loading control.
Eight minutes of incubation was performed in a series of experiments with different exposure times (5, 10, 15, 30, and 60 min) to PrRP31 and its palmitoylated analog. Activation of analogs was strongest after 10 min. Then, the cells were treated with inhibitors of signaling pathways for 2 min, and analogs were added for 8 min. The time of exposure was set to 8 min to ensure that the incubation time for PrRP31 and its palmitoylated analog was the same. The controls and compounds were tested in triplicate in three independent experiments. The PI3K/Akt pathway is one of the main signaling pathways of insulin; therefore, insulin was used as a positive control. Scrambled peptide was used as a negative control. Activation is expressed as the ratio of the activated protein to the total amount of the protein. GAPDH was used as a loading control.

[2] = test system: ERK-CREB signaling pathway in SH-SY5Y cells; assay: Western blotting of ERK-CREB signaling pathway after 8 min incubation; settings: 1 × 10^−5 M, 37 °C, vs control cells (medium alone), normalized to GAPDH, n = 3, triplicates
Experimental: Figure 2 PrRP31 and palm^11-PrRP31 increased phosphorylation of extracellular signal-regulated kinase/cAMP response element-binding protein (ERK-CREB) signaling pathway in SH-SY5Y cells. Immunoblots: (a) and their quantifications: (b). SH-SY5Y cells were incubated either with PrRP31 and its palmitoylated analog and scrambled at a final concentration 1 × 10^−5 M, or with insulin at the final concentration 1 × 10^−7 M at 37 °C for 8 min, or medium alone. Activation was expressed as the ratio of the activated protein to the total amount of the protein, both normalized to loading control, GAPDH. Data are presented as the means ± SEM as a percentage of control cells treated with medium alone analyzed by one-way ANOVA followed by the Dunnett post hoc test, * p < 0.5, ** p < 0.01, **** p < 0.0001 (n = 3, each sample in triplicates).
as §1, §2
Eight minutes of incubation was performed in a series of experiments with different exposure times (5, 10, 15, 30, and 60 min) to PrRP31 and its palmitoylated analog. Activation of analogs was strongest after 10 min. Then, the cells were treated with inhibitors of signaling pathways for 2 min, and analogs were added for 8 min. […] Activation is expressed as the ratio of the activated protein to the total amount of the protein. […]

SH-SY5Y cells = assay: Treatment with peptides after 16 h exposure to MG, MTT cell viability; settings: 1.2 mM MG 16 h, then 4 h treatment 1 × 10^−5 M, n = 3, octuplicates
Experimental: Treatment for 4 h with PrRP31 and palm^11-PrRP31 at a concentration of: (a) 1 × 10^−5 M; after exposure to 1.2 mM MG for 16 h in SH-SY5Y cells. Treatment for 4 h with PrRP31 and palm^11-PrRP31 at a concentration of: (b) 1 × 10^−5 M; (c) 1 × 10^−7 M, after exposure to 0.6 mM MG for 16 h in SH-SY5Y cells. MG toxicity measured with MTT assay. Data are presented as the means ± SEM as a percentage of control cells treated with vehicle analyzed by a Student´s t-test vs. 0.6 mM MG ## p < 0.01, ### p < 0.001, #### p < 0.0001 (n = 3, each sample in octuplicates). Control vs. 0.6 mM MG analyzed by a Student´s t-test, * p < 0.5, ** p < 0.01.
The MTT test was used to measure cell viability. The MTT reagent was dissolved in RPMI-1640 without phenol red. Cells were incubated for 2 h with a 10% solution of MTT at 37 °C. Living cells converted soluble MTT to insoluble formazan, which was subsequently dissolved in DMSO. The absorbance was measured at a wavelength of 560 nm.
For this assay, cells were cultured in 96-well plates at a density of 40,000 cells per well. The growth medium was exchanged for serum-free DMEM 16 h before the experiment. First, the cells were pretreated with 1 × 10^−5 M or 1 × 10^−7 M PrRP31 or palm^11-PrRP31 (in octuplicates) for 4 h to prevent MG cytotoxic effects; then, MG was added to a final concentration of 0.6 mM or 1.2 mM. The cells were incubated at 37 °C for 16 h. […]

| Compound | increase of the level of p-Akt (Ser473)/Akt [1] [%] | increase of the level of p-GSK3β (inhibitory Ser9)/GSK3β [1] [%] | increase of the level of p-m-Tor (Ser2448)/m-Tor [1] [%] | increase of p-CREB (Ser133)/CREB [2] [%] | increase of p-ERK (Thr 202/Tyr204)/ERK [2] [%] | change of cell viability compared to cells administered with 1.2 mM MG (SH-SY5Y cells) | increase of the level of p-Akt (Thr308)/Akt [1] [%] | increase of the level of p-PDK1 (Ser241)/PDK1 [1] [%] |
| --- | --- | --- | --- | --- | --- | --- | --- | --- |
| CC[C@H](C)[C@H](NC(=O)CNC(=O)[C@H](CCCNC(=N)N)NC(=O)[C@H](CO)NC(=O)[C@H](C)NC(=O)[C@H](Cc1ccc(O)cc1)NC(=O)[C@H](Cc1c[nH]c2ccccc12)NC(=O)[C@H](C)NC(=O)[C@@H]1CCCN1C(=O)[C@H](CC(N)=O)NC(=O)[C@@H](NC(=O)[C@H](CC(=O)O)NC(=O)[C@@H]1CCCN1C(=O)[C@@H](NC(=O)[C@H](CCCNC(=N)N)NC(=O)[C@@H](NC(=O)[C@H](CCC(=O)O)NC(=O)[C@H](CCSC)NC(=O)[C@H](CO)NC(=O)[C@H](Cc1c[nH]cn1)NC(=O)[C@H](CCCNC(=N)N)NC(=O)[C@H](Cc1c[nH]cn1)NC(=O)[C@@H](NC(=O)[C@H](CCCNC(=N)N)NC(=O)[C@@H](N)CO)[C@@H](C)O)[C@@H](C)CC)[C@@H](C)O)[C@@H](C)CC)C(=O)N[C@@H](CCCNC(=N)N)C(=O)N1CCC[C@H]1C(=O)N[C@H](C(=O)NCC(=O)N[C@@H](CCCNC(=N)N)C(=O)N[C@@H](Cc1ccccc1)C(N)=O)C(C)C [PrRP31] | 53 | 41 | 22 | 68 | 36 | nonsignificant increase |  |  |
| CCCCCCCCCCCCCCCC(=O)N[C@@H](CCC(=O)NCCCC[C@H](NC(=O)[C@@H](NC(=O)[C@H](CCC(=O)O)NC(=O)[C@H](CCSC)NC(=O)[C@H](CO)NC(=O)[C@H](Cc1c[nH]cn1)NC(=O)[C@H](CCCNC(=N)N)NC(=O)[C@H](Cc1c[nH]cn1)NC(=O)[C@@H](NC(=O)[C@H](CCCNC(=N)N)NC(=O)[C@@H](N)CO)[C@@H](C)O)[C@@H](C)CC)C(=O)N[C@H](C(=O)N1CCC[C@H]1C(=O)N[C@@H](CC(=O)O)C(=O)N[C@H](C(=O)N[C@@H](CC(N)=O)C(=O)N1CCC[C@H]1C(=O)N[C@@H](C)C(=O)N[C@@H](Cc1c[nH]c2ccccc12)C(=O)N[C@@H](Cc1ccc(O)cc1)C(=O)N[C@@H](C)C(=O)N[C@@H](CO)C(=O)N[C@@H](CCCNC(=N)N)C(=O)NCC(=O)N[C@H](C(=O)N[C@@H](CCCNC(=N)N)C(=O)N1CCC[C@H]1C(=O)N[C@H](C(=O)NCC(=O)N[C@@H](CCCNC(=N)N)C(=O)N[C@@H](Cc1ccccc1)C(N)=O)C(C)C)[C@@H](C)CC)[C@@H](C)CC)[C@@H](C)O)C(=O)O [palm^11-PrRP31] (H-SRTHRHSMEIK([γGlu-Palmitoyl])TPDINPAWYASRGIRPVGRF-NH2; N-terminus assumed) | 48 | 85 | 22 | 238 | 74 | nonsignificant increase | 36 | 20 |
